The record followed here is patent US20220396586A1, “THIAZOLE CARBOXAMIDE COMPOUNDS AND USE THEREOF FOR THE TREATMENT OF MYCOBACTERIAL INFECTIONS” (THE GLOBAL ALLIANCE FOR TB DRUG DEVELOPMENT, INC., priority 2019, published 2022).

In test [1] the test system is M. tb H37Rv. In words: MIC determination against M. tb H37Rv (MIC-MABA). The format is cell-based, Mycobacterium tuberculosis. As to conditions: 7H9 broth, 10 days exposure, MIC = lowest concentration inhibiting fluorescence by 90%; for MIC: Mycobacterium tuberculosis, H37RV, 240 h, read-out: M. tb H37Rv: MIC-MABA, M. tb H37Rv.
In test [2] the test system is M. ab_ATCC. The experiment in a line: MIC against Mycobacterium abscessus (M. ab_ATCC, MHII), procedure of Franz 2017. The format is cell-based. As to conditions: Mycobacteroides abscessus, Mycobacterium abscessus ATCC. The source says:
The procedure described in Franz 2017 was used to generate the data shown in column 2 of Table 1.

≈ marks a conversion by molar mass, not a printed value.

Broadly, the MIC is the least concentration at which growth counts as inhibited. For the molecule `C[Si]1(C)CCC(NC(=O)c2cc3sc(-c4ccccc4F)nc3[nH]2)CC1` [MPL-373, N-(1,1-dimethylsilinan-4-yl)-2-(2-fluorophenyl)-4H-pyrrolo[2,3-d]thiazole-5-carboxamide], the minimal inhibitory concentration (MIC) was found to be 0.084 µg/mL (≈ 0.217 µM) in test [1] and 6 µg/mL (≈ 15.5 µM) in test [2].

On to `C[Si]1(C)CCCC(NC(=O)c2cc3sc(-c4ccccc4)nc3[nH]2)CC1` (single isomer, unassigned) [MPL-357B, N-(1,1-dimethylsilepan-4-yl)-2-phenyl-4H-pyrrolo[2,3-d]thiazole-5-carboxamide], for which the “M. tb H37Rv: MIC-MABA” value in test [1] was 0.110 µg/mL.

Regarding `C[Si]1(C)CCC(NC(=O)c2cc3sc(-c4ccncc4)nc3[nH]2)CC1` [MPL-370, N-(1,1-dimethylsilinan-4-yl)-2-(4-pyridyl)-4H-pyrrolo[2,3-d]thiazole-5-carboxamide], the MIC in test [1] was 0.574 µg/mL (≈ 1.55 µM); in test [2], over 64 µg/mL.

Turning to `O=C(NC1CCCCCCC1)c1cc2sc(C3CC3)nc2[nH]1` [MPL-142, N-cyclooctyl-2-cyclopropyl-4H-pyrrolo[2,3-d]thiazole-5-carboxamide], the results for the minimal inhibitory concentration (MIC) in test [1] and in test [2] were 0.93 µg/mL (≈ 2.93 µM) and over 64 µg/mL, respectively.

With `C[Si]1(C)CCC(NC(=O)c2cc3sc(-c4ccccc4)nc3[nH]2)C1` (stereo not shown) [MPL-404, N-(1,1-dimethylsilolan-3-yl)-2-phenyl-4H-pyrrolo[2,3-d]thiazole-5-carboxamide], the MIC in test [1] is 0.083 µg/mL (≈ 0.233 µM); in test [2], 64 µg/mL (≈ 180 µM).

As to `COc1nc2[nH]c(C(=O)NC3CC[Si]4(CCCC4)CC3)cc2s1` [MPL-393, 2-methoxy-N-(5-silaspiro[4.5]decan-8-yl)-4H-pyrrolo[2,3-d]thiazole-5-carboxamide], the minimum inhibitory concentration (MIC) was 0.062 µg/mL (≈ 0.177 µM) in test [1] and over 64 µg/mL in test [2].

For the molecule `Cc1c(C(=O)N[C@H]2C[C@H]3C[C@@H]([C@@H]2C)C3(C)C)[nH]c2nc(C3CC3)sc12` [MPL-150, 2-cyclopropyl-6-methyl-N-((1S,2S,3S,5R)-2,6,6-trimethylbicyclo[3.1.1]heptan-3-yl)-4H-pyrrolo[2,3-d]thiazole-5-carboxamide], the minimum inhibitory concentration (MIC) is 0.3 µg/mL (≈ 0.839 µM) in test [1] and over 64 µg/mL in test [2].

`CC1CCC(NC(=O)c2cc3sc(-c4ccccc4)nc3[nH]2)CC1` (single isomer, unassigned) [MPL-433A, N-(4-methylcyclohexyl)-2-phenyl-4H-pyrrolo[2,3-d]thiazole-5-carboxamide]: the MIC in test [1] is over 1 µg/mL.

With `COc1nc2[nH]c(C(=O)NC3CCC[Si](C)(C)CCC3)cc2s1` [MPL-396, N-(1,1-dimethylsilocan-5-yl)-2-methoxy-4H-pyrrolo[2,3-d]thiazole-5-carboxamide], the MIC in test [1] is 0.309 µg/mL (≈ 0.879 µM); in test [2], over 64 µg/mL.

Take `C[Si]1(C)CCCC(NC(=O)c2cc3sc(OC4CCCC4)nc3[nH]2)CC1` (stereo not shown) [MPL-478, 2-(cyclopentoxy)-N-(1,1-dimethylsilepan-4-yl)-4H-pyrrolo[2,3-d]thiazole-5-carboxamide]: the MIC is 0.02 µg/mL (≈ 0.0511 µM) in test [1] and over 64 µg/mL in test [2].

As to `C[Si]1(C)CCCC(NC(=O)c2cc3sc(-c4ccccc4)nc3[nH]2)CCC1` [MPL-369, N-(1,1-dimethylsilocan-5-yl)-2-phenyl-4H-pyrrolo[2,3-d]thiazole-5-carboxamide], the MIC in test [1] is 0.031 µg/mL (≈ 0.078 µM); in test [2], over 64 µg/mL.

For the molecule `Cc1nc2[nH]c(C(=O)NC3CCC(C)(C)CC3)cc2s1` [MPL-020, N-(4,4-dimethylcyclohexyl)-2-methyl-4H-pyrrolo[2,3-d]thiazole-5-carboxamide], the MIC in test [1] was determined as 0.53 µg/mL (≈ 1.82 µM); in test [2], 2 µg/mL (≈ 6.86 µM).

For `Cc1nc2[nH]c(C(=O)NC3CC[Si](C)(C)CC3)cc2s1` [MPL-205, N-(1,1-dimethylsilinan-4-yl)-2-methyl-4H-pyrrolo [2,3-d]thiazole-5-carboxamide], the MIC in test [1] was 0.18 µg/mL (≈ 0.585 µM); in test [2] it was over 64 µg/mL.

Consider `C[Si]1(C)CCCC(NC(=O)c2cc3sc(-c4cccnc4)nc3[nH]2)CC1` (stereo not shown) [MPL-365, N-(1,1-dimethylsilepan-4-yl)-2-(3-pyridyl)-4H-pyrrolo[2,3-d]thiazole-5-carboxamide], for which the MIC was 0.125 µg/mL (≈ 0.325 µM) in test [1] and over 64 µg/mL in test [2].

`Cc1nc2[nH]c(C(=O)NC3CCCCCCC3)cc2s1` [MPL-042, N-cyclooctyl-2-methyl-4H-pyrrolo[2,3-d]thiazole-5-carboxamide]: the results for the MIC in test [1] and in test [2] were 0.35 µg/mL (≈ 1.2 µM) and over 64 µg/mL, respectively.

Take `COc1nc2cc(C(=O)NC3CC[Si](C)(C)CC3)[nH]c2s1` [MPL-313, N-(1,1-dimethylsilinan-4-yl)-2-methoxy-4H-pyrrolo[3,2-d]thiazole-5-carboxamide]: the MIC in test [1] is 0.254 µg/mL (≈ 0.785 µM); in test [2], over 64 µg/mL.

For `C[Si]1(C)CCCC(NC(=O)c2cc3sc(OC4CC4)nc3[nH]2)CC1` (stereo not shown) [MPL-472, 2-(cyclopropoxy)-N-(1,1-dimethylsilepan-4-yl)-4H-pyrrolo[2,3-d]thiazole-5-carboxamide], the MIC in test [1] was 0.06 µg/mL (≈ 0.165 µM); in test [2] it was over 64 µg/mL.

With `C[Si]1(C)CCC(NC(=O)c2cc3sc(-c4ccccc4)nc3[nH]2)CC1` [MPL-308, N-(1,1-dimethylsilinan-4-yl)-2-phenyl-4H-pyrrolo[2,3-d]thiazole-5-carboxamide], the MIC in test [1] was 0.007 µg/mL (≈ 0.0189 µM); in test [2], over 64 µg/mL.

With `Cc1c(C(=O)NC2CC[Si]3(CCCCC3)CC2)[nH]c2nc(-c3ccccc3)sc12` [MPL-431, 6-methyl-2-phenyl-N-(6-silaspiro[5.5]undecan-3-yl)-4H-pyrrolo[2,3-d]thiazole-5-carboxamide], the MIC in test [1] was 0.021 µg/mL (≈ 0.0496 µM); in test [2] it was over 64 µg/mL.

`Cc1nc2cc(C(=O)N[C@H]3C[C@H]4C[C@@H]([C@@H]3C)C4(C)C)[nH]c2s1` [MPL-090, 2-methyl-N-((1S,2S,3S,5R)-2,6,6-trimethylbicyclo[3.1.1]heptan-3-yl)-4H-pyrrolo[3,2-d]thiazole-5-carboxamide]: the figures for the MIC in test [1] and in test [2] were 3.2 µg/mL (≈ 10.1 µM) and over 64 µg/mL, respectively.

As for `COc1nc2[nH]c(C(=O)N[C@H]3C[C@H]4C[C@H](C4(C)C)[C@@]3(C)O)cc2s1` [MPL-457, N-[(1R,2R,3S,5R)-2-hydroxy-2,6,6-trimethyl-norpinan-3-yl]-2-methoxy-4H-pyrrolo[2,3-d]thiazole-5-carboxamide], in test [1], the minimum inhibitory concentration (MIC) was over 1 µg/mL.

As to `CC1CCC(NC(=O)c2cc3sc(-c4ccccc4)nc3[nH]2)CC1` (single isomer, unassigned) [MPL-433B, N-(4-methylcyclohexyl)-2-phenyl-4H-pyrrolo[2,3-d]thiazole-5-carboxamide], the “M. tb H37Rv: MIC-MABA” value in test [1] was 0.69 µg/mL.

With `C[C@@H]1[C@@H](NC(=O)c2cc3scnc3[nH]2)C[C@H]2C[C@@H]1C2(C)C` [MPL-026, N-[(1S,2S,3S,5R)-2,6,6-trimethylnorpinan-3-yl]-4H-pyrrolo[2,3-d]thiazole-5-carboxamide], in test [1], the MIC amounted to 3.1 µg/mL (≈ 10.2 µM).

Turning to `C[Si]1(C)CCCC(NC(=O)c2cc3sc(-c4ccccc4)nc3[nH]2)CC1` (single isomer, unassigned) [MPL-357A, N-(1,1-dimethylsilepan-4-yl)-2-phenyl-4H-pyrrolo[2,3-d]thiazole-5-carboxamide], the “M. tb H37Rv: MIC-MABA” value in test [1] was 0.007 µg/mL.

As to `CC(C)(C)c1ccc(-c2nc3[nH]c(C(=O)NC4CC[Si]5(CCCCC5)CC4)cc3s2)cc1` [MPL-426, 2-(4-tert-butylphenyl)-N-(6-silaspiro[5.5]undecan-3-yl)-4H-pyrrolo[2,3-d]thiazole-5-carboxamide], in test [1], the MIC amounted to 0.12 µg/mL (≈ 0.258 µM).
